Reference: patent publication US20260125400A1, “TYK2 DEGRADERS AND USES THEREOF” (Kymera Therapeutics, Inc., priority 2023, published 2026)
Like-named read-outs stand apart in the source and are kept apart here.

Target: T1, TYK2 (Homo sapiens, UniProt P29597)
T1 construct: Degradation of TYK2 in cells was quantitatively measured using Meso Scale Discovery (MSD) technology; endogenous in cells; host or cells: OCI-LY10
Assay: TYK2 MSD degradation in OCI-LY10 cells
Assay type: cell-based
Conditions: 4 to 24 hours incubation; for DC50: read-out: TYK2 MSD OCI-LY10 Rel-DC50
Method in brief: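 OCI-LY10 cells were treated with 9-dose 1:3 series (top 1 to 10 μM final) for 4 to 24 hours at 37° C. Lysate TYK2 quantified by MSD sandwich immunoassay; DC50 and Dmax from four-parameter inhibitor vs. response fit.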

[1] = TYK2 degradation in OCI-LY10 cells

T1 sequence (P29597 whole entry): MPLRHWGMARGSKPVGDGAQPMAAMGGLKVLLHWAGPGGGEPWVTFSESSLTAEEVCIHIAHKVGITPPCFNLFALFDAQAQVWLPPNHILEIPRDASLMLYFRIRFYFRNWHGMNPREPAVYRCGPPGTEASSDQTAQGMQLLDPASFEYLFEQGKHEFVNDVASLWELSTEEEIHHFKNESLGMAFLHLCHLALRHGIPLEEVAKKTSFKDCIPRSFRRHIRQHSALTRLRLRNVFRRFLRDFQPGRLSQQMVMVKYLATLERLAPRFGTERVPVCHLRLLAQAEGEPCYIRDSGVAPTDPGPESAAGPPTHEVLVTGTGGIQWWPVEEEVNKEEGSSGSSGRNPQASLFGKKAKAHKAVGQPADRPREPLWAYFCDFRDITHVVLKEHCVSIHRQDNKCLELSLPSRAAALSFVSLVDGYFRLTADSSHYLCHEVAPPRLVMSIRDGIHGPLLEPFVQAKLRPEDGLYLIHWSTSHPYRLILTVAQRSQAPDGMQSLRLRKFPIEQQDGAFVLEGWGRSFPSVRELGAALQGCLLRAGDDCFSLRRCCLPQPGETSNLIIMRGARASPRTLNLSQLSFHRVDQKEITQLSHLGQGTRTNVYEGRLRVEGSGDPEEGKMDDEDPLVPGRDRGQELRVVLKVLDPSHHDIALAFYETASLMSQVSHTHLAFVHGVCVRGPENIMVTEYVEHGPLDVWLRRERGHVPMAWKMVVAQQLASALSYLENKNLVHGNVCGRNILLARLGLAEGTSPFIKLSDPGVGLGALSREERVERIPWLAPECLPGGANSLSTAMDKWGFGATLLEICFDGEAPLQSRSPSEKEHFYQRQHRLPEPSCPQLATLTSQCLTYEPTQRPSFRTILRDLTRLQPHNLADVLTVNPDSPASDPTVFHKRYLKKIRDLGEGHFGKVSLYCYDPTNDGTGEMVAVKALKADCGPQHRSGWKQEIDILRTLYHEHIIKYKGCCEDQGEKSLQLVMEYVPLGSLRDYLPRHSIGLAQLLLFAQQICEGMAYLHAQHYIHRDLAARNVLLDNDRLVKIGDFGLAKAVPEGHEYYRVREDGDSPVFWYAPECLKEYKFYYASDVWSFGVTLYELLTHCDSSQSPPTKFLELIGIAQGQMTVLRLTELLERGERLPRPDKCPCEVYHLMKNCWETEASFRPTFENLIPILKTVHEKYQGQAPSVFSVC

Row | SMILES | TYK2 MSD OCI-LY10 Dmax % [1] | DC50 [1] [nM] | TYK2 MSD OCI-LY10 Dmax % (OCI-LY10 cells) | DC50 (OCI-LY10 cells) [nM] | Dmax [1] [%]
1 | CNc1cc(-c2ccc(N3CCN(CC4CC5(CCN(C(=O)c6ccc(Cl)c(N7CCC(=O)NC7=O)c6)CC5)C4)CC3)cc2)nn2c(C(=O)N[C@@H]3C[C@@H]3F)cnc12 [I-889] | D (D (<50%)) | > 100 | – | – | –
2 | CNc1cc(N2CCc3c(-c4ncc(CN5CCC6(CCN(C(=O)c7cc(C)c(Cl)c(N8CCC(=O)NC8=O)c7)CC6)C(F)(F)C5)cc4F)cccc32)nn2c(C(=O)N[C@@H]3CC[C@H]3OC)cnc12 [I-1106] | A (A (>90%)) | < 10 | – | – | –
3 | CNc1cc(N2CCc3c(-c4ccc(CN5CCC6(CC5)CC(COc5ccc(C7CCC(=O)NC7=O)c(Cl)c5)C6)cn4)cccc32)nn2c(C(=O)N[C@@H]3C[C@@H]3F)cnc12 (stereo partly shown) [I-460] | – | – | D (D (<50%)) | > 100 | –
4 | CNc1cc(N2CCc3c2cccc3C23CC(CN4CCC(N5CC(N6CCN(c7cccc8c7n(C)c(=O)n8C7CCC(=O)NC7=O)CC6)C5)C(F)(F)C4)(C2)C3)nn2c(C(=O)N[C@@H]3C[C@@H]3F)cnc12 (stereo partly shown) [I-429] | – | – | B (B (90 to >75%)) | < 10 | –
5 | CNc1cc(N2CCc3c(CN4CCC(N5CC(N6CCN(c7cccn8c(N9CCC(=O)NC9=O)cnc78)CC6)C5)C(F)(F)C4)cccc32)nn2c(C(=O)N[C@@H]3C[C@@H]3F)cnc12 (stereo partly shown) [I-904] | A (A (>90%)) | < 1 | – | – | –
6 | CNc1cc(N2CCc3c(-c4ccc(CC5CN(C6CCN(C7CCN(c8ccc9c(c8)n(C)c(=O)n9C8CCC(=O)NC8=O)CC7)CC6(F)F)C5)cn4)cccc32)nn2c(C(=O)N[C@@H]3C[C@@H]3F)cnc12 (stereo partly shown) [I-359] | B (B (90 to >75%)) | < 1 | – | – | –
7 | CNc1cc(N2CCc3c(CN4CCC(N5CCC6(CCN(c7ccc8c(c7)n(C)c(=O)n8C7CCC(=O)NC7=O)CC6)CC5)C(F)(F)C4)cccc32)nn2c(C(=O)NC3CC3)cnc12 (stereo not shown) [I-19] | B (B (90 to >75%)) | < 10 | – | – | –
8 | CNc1cc(N2CCc3c(-c4ccc(CN5CC6(CCN(C(=O)c7ccc(OC)c(N8CCC(=O)NC8=O)c7)CC6)C5)cn4)cccc32)nn2c(C(=O)N[C@@H]3C[C@@H]3F)cnc12 [I-64] | A (A (>90%)) | < 1 | – | – | –
9 | CNc1cc(N2CCc3c(CN4CCC(N5CCC(N(C)c6ccc(Cl)c(N7CCC(=O)NC7=O)c6)CC5)C(F)(F)C4)cccc32)nn2c(C(=O)N[C@@H]3C[C@@H]3F)cnc12 (stereo partly shown) [I-758] | – | – | B (B (90 to >75%)) | < 10 | –
10 | CNc1cc(N2CCc3c(-c4ccc(CN5CC6(CCN(C(=O)c7ccc(Cl)c(N8CCC(=O)NC8=O)c7)C6)C5)cn4)cccc32)nn2c(C(=O)NC3CC3F)cnc12 (stereo not shown) [I-296] | C (C (75 to 50%)) | < 1 | – | – | –
11 | CNc1cc(N2CCc3c(-c4ccc(CN5CCC6(CCC(Oc7ccc(Cl)c(N8CCC(=O)NC8=O)c7)CC6)C(F)(F)C5)cn4)cccc32)nn2c(C(=O)NC3CCC3OC)cnc12 (stereo not shown) [I-1010] | B (B (90 to >75%)) | < 10 | – | – | –
12 | CNc1cc(N2CCc3c(-c4ncc(CN5CC6(CCN(C(=O)c7cc(C)c(Cl)c(N8CCC(=O)NC8=O)c7)CC6(F)F)C5)cc4F)cccc32)nn2c(C(=O)N[C@@H]3C[C@@H]3F)cnc12 [I-813, 6-(4-(5-((7-(4-chloro-3-(2,4-dioxotetrahydropyrimidin-1(2H)-yl)-5-methylbenzoyl)-5,5-difluoro-2,7-diazaspiro[3.5]nonan-2-yl)methyl)-3-fluoropyridin-2-yl)indolin-1-yl)-N-((1R,2S)-2-fluorocyclopropyl)-8-(methylamino)imidazo[1,2-b]pyridazine-3-carboxamide] | – | < 1 | – | – | > 90
13 | CNc1cc(N2CCc3c(CN4CCC(N5CCC(CC#Cc6ccc7c(c6)n(C)c(=O)n7C6CCC(=O)NC6=O)CC5)C(F)(F)C4)cccc32)nn2c(C(=O)N[C@@H]3C[C@@H]3F)cnc12 (stereo partly shown) [I-368] | D (D (<50%)) | > 100 | – | – | –
14 | CNc1cc(-c2cn(C3CCN(C(=O)c4ccc(Cl)c(N5CCC(=O)NC5=O)c4)CC3)c3ccccc23)nn2c(C(=O)N[C@@H]3C[C@@H]3F)cnc12 [I-798] | D (D (<50%)) | > 100 | – | – | –
15 | CNc1cc(N2CCc3c(-c4ncc([C@@H](C)N5CC6(CCN(C(=O)c7cc(C)c(Cl)c(N8CCC(=O)NC8=O)c7)CC6(F)F)C5)cc4F)cccc32)nn2c(C(=O)N[C@@H]3CC[C@H]3OC)cnc12 [I-1144] | B (B (90 to >75%)) | < 1 | – | – | –
16 | CNc1cc(-c2cn(CC3CCN(CCC4CCN(C(=O)c5ccc(Cl)c(N6CCC(=O)NC6=O)c5)CC4)CC3)c3ccccc23)nn2c(C(=O)N[C@@H]3C[C@@H]3F)cnc12 [I-771] | – | – | B (B (90 to >75%)) | < 10 | –
17 | CNc1cc(N2CCc3c(CN4CCC(N5CCC6(CCN(C(=O)c7cc(Cl)c(C)c(N8CCC(=O)NC8=O)c7)CC6)CC5)C(F)(F)C4)cccc32)nn2c(C(=O)N[C@@H]3C[C@@H]3F)cnc12 (stereo partly shown) [I-711] | – | – | B (B (90 to >75%)) | < 10 | –
18 | CNc1cc(N2CCc3c(-c4ccc(CN5CCC6(CCN(C(=O)c7cc(Cl)c(F)c(N8CCC(=O)NC8=O)c7)CC6)C(F)(F)C5)cn4)cccc32)nn2c(C(=O)N[C@@H]3C[C@@H]3F)cnc12 [I-792] | – | – | B (B (90 to >75%)) | < 10 | –

Row | SMILES | TYK2 MSD OCI-LY10 Dmax % [1] | DC50 [1] [nM] | TYK2 MSD OCI-LY10 Dmax % (OCI-LY10 cells) | DC50 (OCI-LY10 cells) [nM] | Dmax [1] [%]
19 | CNc1cc(N2CCc3c(-c4ccc(CN5CCC6(CC5)CC(COc5ccc(Cl)c(C7CCC(=O)NC7=O)c5)C6)cn4)cccc32)nn2c(C(=O)N[C@@H]3C[C@@H]3F)cnc12 (stereo partly shown) [I-461] | – | – | D (D (<50%)) | < 10 | –
20 | CNc1cc(N2CCc3c(CN4CCC(N5CCC6(CCN(C(=O)c7cc(C)c(Cl)c(N8CCC(=O)NC8=O)c7)CC6)CC5)C(F)(F)C4)cccc32)nn2c(C(=O)N[C@@H]3C[C@@H]3F)cnc12 (stereo partly shown) [I-713] | – | – | B (B (90 to >75%)) | < 10 | –
21 | CNc1cc(N2CCc3c([C@@H](C)N4CC[C@H](N5CCC6(CCN(C(=O)c7cc(C)c(Cl)c(N8CCC(=O)NC8=O)c7)CC6)CC5)C(F)(F)C4)cccc32)nn2c(C(=O)N[C@@H]3CC[C@H]3OC)cnc12 [I-1128] | A (A (>90%)) | < 1 | – | – | –
22 | CNc1cc(N2CCc3c(-c4ncc(CN5CC6(CCN(C(=O)c7cc(N8CCC(=O)NC8=O)c(Cl)c(C)n7)CC6(F)F)C5)cc4F)cccc32)nn2c(C(=O)N[C@@H]3C[C@@H]3F)cnc12 [I-930] | A (A (>90%)) | < 1 | – | – | –
23 | CNc1cc(N2CCc3c(C4CCCN(CC5CN(c6ccc7c(c6)n(C)c(=O)n7C6CCC(=O)NC6=O)C5)C4)cccc32)nn2c(C(=O)NC3CC3)cnc12 (stereo not shown) [I-45] | C (C (75 to 50%)) | < 1 | – | – | –
24 | CNc1cc(N2CCc3c(-c4ccc(CN5CC6(CCC(COc7ccc(Cl)c(C8CCC(=O)NC8=O)c7)CC6)C5)cn4)cccc32)nn2c(C(=O)N[C@@H]3C[C@@H]3F)cnc12 (stereo partly shown) [I-462] | – | – | D (D (<50%)) | 10 to 100 | –
25 | CNc1cc(N2CCc3c(N4CCC5(CCN(C(=O)c6ccc(Cl)c(N7CCC(=O)NC7=O)c6)CC5)CC4)cccc32)nn2c(C(=O)N[C@@H]3C[C@@H]3F)cnc12 [I-93] | D (D (<50%)) | < 10 | – | – | –
26 | CNc1cc(N2CCc3c(-c4ccc(CN5CCN(Cc6ccc(NC7CCC(=O)NC7=O)c(Cl)c6)CC5)cn4)cccc32)nn2c(C(=O)N[C@@H]3C[C@@H]3F)cnc12 (stereo partly shown) [I-389] | C (C (75 to 50%)) | < 10 | – | – | –
27 | CNc1cc(N2CCc3c(-c4ncc(CN5CC6(CCN(C(=O)c7cc(C)c(C)c(N8CCC(=O)NC8=O)c7)CC6(F)F)C5)cc4F)cccc32)nn2c(C(=O)NC3CCC3OC)cnc12 (stereo not shown) [I-993] | A (A (>90%)) | < 1 | – | – | –
28 | CNc1cc(N2CCc3c(-c4ccc(CN5CCC6(CCN(C(=O)c7cc(F)c(C)c(N8CCC(=O)NC8=O)c7)CC6)C(F)(F)C5)cn4)cccc32)nn2c(C(=O)N[C@@H]3C[C@@H]3F)cnc12 [I-657] | – | – | A (A (>90%)) | < 1 | –
29 | CNc1cc(N2CCc3c(-c4cc(CN5CCN(c6ccc7c(c6F)n(C)c(=O)n7C6CCC(=O)NC6=O)CC5)ccn4)cccc32)nn2c(C(N)=O)cnc12 (stereo not shown) [I-81] | B (B (90 to >75%)) | < 1 | – | – | –
30 | CNc1cc(N2CCc3c(-c4ccc(CC5CCC6(CC5)CCN(C(=O)c5cc(C)c(Cl)c(N7CCC(=O)NC7=O)c5)CC6)cn4)cccc32)nn2c(C(=O)N[C@@H]3CC[C@H]3OC)cnc12 [I-1107] | A (A (>90%)) | < 10 | – | – | –
31 | CNC(=O)c1cnc(Nc2ccc(C(=O)NCCOCCOCCOCCN(C(=O)C3CCCN(c4cncc5ccccc45)C3)c3ccc(=O)n(CC(=O)O)c3)cn2)cc1Nc1cccc(-c2ncccn2)c1OC (stereo not shown) [I-918] | D (D (<50%)) | > 100 | – | – | –
32 | CNc1cc(N2CCc3c(-c4ccc(CC5CCC6(CC5)CCN(C(=O)c5ccc(Cl)c(N7CCC(=O)NC7=O)c5)CC6)cn4)cccc32)nn2c(C(=O)N[C@@H]3C[C@@H]3F)cnc12 [I-654] | – | – | B (B (90 to >75%)) | < 10 | –
33 | CNc1cc(N2CCc3c2ccc(F)c3CN2CCC(N3CCC4(CCN(C(=O)c5ccc(Cl)c(N6CCC(=O)NC6=O)c5)CC4)CC3)C(F)(F)C2)nn2c(C(=O)N[C@@H]3C[C@@H]3F)cnc12 (stereo partly shown) [I-750] | – | – | A (A (>90%)) | < 1 | –
34 | CNc1cc(N2CCc3c(-c4ncc(CN5CC6(CCN(C(=O)c7cc(C)c(Cl)c(N8CCC(=O)NC8=O)c7)CC6(F)F)C5)cc4F)cccc32)nn2c(C(=O)NC3CCCC3)cnc12 [I-990] | B (B (90 to >75%)) | < 10 | – | – | –
35 | CNc1cc(N2CCc3c(-c4ccc(CN5CC6(CCN(Cc7cc(N8CCC(=O)NC8=O)c(Cl)cc7C)CC6(F)F)C5)cn4)cccc32)nn2c(C(=O)N[C@@H]3C[C@@H]3F)cnc12 [I-456] | – | – | D (D (<50%)) | > 100 | –
